Reference: patent US8088806B2 (Achillion Pharmaceuticals, Inc., priority 2005, dated 2012)

These compounds were tested on HCV replicon (assay: Replicon based assay of HCV replication inhibition (NPT ELISA)). Settings: Hepatitis C virus, Huh-7, 72 h, Table I; Huh-7 HCV replicon-containing cells, three days; read-out: Activity.
Assay type: cell-based, Hepatitis C virus
Summary of the method: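 NPT (neomycin phosphotransferase) content, proportional to replicon replication, quantified by capture ELISA on day four. Before that, replicon-bearing Huh-7 cells in G418-free screening medium were exposed three days at 37° C to compound, typically six doses from 10 to 0.03 micromolar, with equal DMSO across wells.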
`CCCCCOc1ccc(Nc2nc(-c3ccc(OCC(=O)O)cc3)c(C)s2)cc1C(F)(F)F` [compound 137, 2-(4-(2-(3-(trifluoromethyl)-4-(pentyloxy)phenylamino)-5-methylthiazol-4-yl)phenoxy)acetic acid] showed an EC50 of under 1 µM.
Compound `CCCCCOc1ccc(Nc2nc(-c3ccc(F)cc3)c(C)s2)cc1C(F)(F)F` [compound 12, N-(3-(trifluoromethyl)-4-(pentyloxy)phenyl)-4-(4-fluorophenyl)-5-methylthiazol-2-amine] has an EC50 of under 1 µM.
Compound `FC(F)(F)Oc1ccc(Nc2nc(-c3ccc(Cl)c(Cl)c3)cs2)cc1` [compound 44, 4-(3,4-dichlorophenyl)-N-(4-(trifluoromethoxy)phenyl)thiazol-2-amine] has an EC50 of over 10 µM.
For `CCCCCOc1ccc(Nc2nc(-c3ccc4c(c3)NC(=O)CO4)cs2)cc1C(F)(F)F` [compound 199, 6-(2-(3-(trifluoromethyl)-4-(pentyloxy)phenylamino)thiazol-4-yl)-2H-benzo[b][1,4]oxazin-3(4H)-one], the EC50 was under 1 µM.
Work on `CCCCCOc1ccc(Nc2ncc(C(=O)OC)s2)cc1C(F)(F)F` [compound 130, methyl 2-(3-(trifluoromethyl)-4-(pentyloxy)phenylamino)thiazole-5-carboxylate] yielded an EC50 of over 10 µM.

Same assay, conditions: Hepatitis C virus, Huh-7, 72 h, Table III; Huh-7 HCV replicon-containing cells, three days; read-out: Activity
`O=C(c1ccc(Nc2nc(-c3ccc(F)cc3)cs2)cc1C(F)(F)F)N1CCC2CCCCC2C1` (centres unmarked) [compound 699, (4-(4-(4-fluorophenyl)thiazol-2-ylamino)-2-(trifluoromethyl)phenyl)(octahy-droisoquinolin-2(1H)-yl)methanone] showed an EC50 of over 10 µM.
`CCCCCCCCN(C)c1ccc(Nc2nc(-c3cc4ccccc4o3)cs2)cc1C(F)(F)F` [compound 577, N^4-(4-(benzofuran-2-yl)thiazol-2-yl)-2-(trifluoromethyl)-N^1-methyl-N^1-octylbenzene-1,4-diamine] showed an EC50 of 1 to 10 µM.
`CC(C)CCCC(C)CCOc1ccc(Nc2nc(-c3cccnc3)cs2)cc1C(F)(F)F` (centres unmarked) [compound 691, N-(4-(3,7-dimethyloctyloxy)-3-(trifluoromethyl)phenyl)-4-(pyridin-3-yl)thiazol-2-amine] was tested, and the EC50 was under 1 µM.
Compound `CC(C)=CCC/C(C)=C/COc1ccc(Nc2nc(-c3cccnc3)cs2)cc1C(F)(F)F` [compound 690, N-(4-((E)-3,7-dimethylocta-2,6-dienyloxy)-3-(trifluoromethyl)phenyl)-4-(pyridin-3-yl)thiazol-2-amine] has an EC50 of under 1 µM.
Compound `CCC(CC)Oc1ccc(Nc2nc(-c3cccnc3)cs2)cc1C(F)(F)F` [compound 645, N-(3-(trifluoromethyl)-4-(pentan-3-yloxy)phenyl)-4-(pyridin-3-yl)thiazol-2-amine] has an EC50 of under 1 µM.
`CCCCCCCCOc1ccc(Nc2nc(-c3ccc(Cl)cc3)cs2)cc1C(F)(F)F` [compound 591, 4-(4-chlorophenyl)-N-(3-(trifluoromethyl)-4-(octyloxy)phenyl)thiazol-2-amine] showed an EC50 of under 1 µM.
For `CCCCCCCc1ccc(Nc2nc(-c3ccc(O)c(O)c3)cs2)cc1` [compound 559, 4-(2-(4-heptylphenylamino)thiazol-4-yl)benzene-1,2-diol], the EC50 was under 1 µM.

Same assay, conditions: Hepatitis C virus, replicon based assay of HCV replication inhibition; Table II; read-out: Activity
`FC(F)(F)c1cc(Nc2nc(-c3cccnc3)cs2)ccc1OC1CCCC1` [compound 238, N-(4-(cyclopentyloxy)-3-(trifluoromethyl)phenyl)-4-(pyridin-3-yl)thiazol-2-amine] gave an EC50 of under 1 µM.
`CCCCCCCCOc1ccc(Nc2nc(O)cs2)cc1` [compound 464, 2-(4-(octyloxy)phenylamino)thia-zol-4-ol] gave an EC50 of 1 to 10 µM.
For `CCCCCCCOc1ccc(Nc2nc(-c3ccc(C)nc3)cs2)cc1` [compound 369, N-(4-(heptyloxy)phenyl)-4-(6-methylpyridin-3-yl)thiazol-2-amine], the EC50 was under 1 µM.
`CCCCCOc1ccc(Nc2nc(CC)cs2)cc1C(F)(F)F` [compound 415, 4-ethyl-N-(3-(trifluoromethyl)-4-(pentyloxy)phenyl)thiazol-2-amine] was tested, and the EC50 was under 1 µM.
`CCCCCCCCOc1ccc(Nc2nc(-c3ccc(OCC(=O)O)cc3)c(C)s2)cc1` [compound 311] was tested, and the EC50 was under 1 µM.
For `CCCCCCCCOc1ccc(Nc2nc(CN3CCCC(C)C3)cs2)cc1` (centres unmarked) [compound 325, 4-((3-methylpiperidin-1-yl)methyl)-N-(4-(octyloxy)phenyl)thiazol-2-amine], the EC50 was 1 to 10 µM.
Compound `CCCCCCCCOc1ccc(Nc2nc(-c3ccc(OC)cc3)c(-c3ccc(OC)cc3)s2)cc1` [compound 353, 4,5-bis(4-methoxyphenyl)-N-(4-(octyloxy)phenyl)thiazol-2-amine] has an EC50 of 1 to 10 µM.
With `CCCCCCCCOc1ccc(Nc2nc(Cc3ccccc3)cs2)cn1` [compound 491, N-(4-benzylthiazol-2-yl)-6-(octyloxy)pyridin-3-amine] the EC50 was 1 to 10 µM.
Work on `CCCCCCCCOc1ccc(Nc2nc(-c3ccc(O)c(C(N)=O)c3)cs2)cc1` [compound 449, 5-(2-(4-(octyloxy)phenylamino)thia-zol-4-yl)-2-hydroxybenzamide] yielded an EC50 of under 1 µM.
In the case of `CCCCCCCOc1ccc(Nc2nc(-c3ccc(F)cc3F)cs2)cc1` [compound 423, 4-(2,4-difluorophenyl)-N-(4-(heptyloxy)phenyl)thiazol-2-amine], the EC50 is reported as under 1 µM.
`CCCCCOc1ccc(Nc2nc(-c3ccccn3)cs2)cc1F` [compound 418, N-(3-fluoro-4-(pentyloxy)phenyl)-4-(pyridin-2-yl)thiazol-2-amine] gave an EC50 of under 1 µM.
`CCCCCCCCN(C)c1ccc(Nc2nc(-c3ccc(F)nc3)cs2)cc1C(F)(F)F` [compound 489, 2-(trifluoromethyl)-N^4-(4-(6-fluoropyridin-3-yl)thiazol-2-yl)-N^1-methyl-N^1-octylbenzene-1,4-diamine] gave an EC50 of under 1 µM.
Work on `CCCCCCCCOc1ccc(Nc2nc(-c3ccc(F)cc3)cs2)cn1` [compound 475, N-(4-(4-fluorophenyl)thiazol-2-yl)-6-(octyloxy)pyridin-3-amine] yielded an EC50 of under 1 µM.
`CCCCCCCCOc1ccc(Nc2nc(-c3ccncc3)cs2)cc1` [compound 416, N-(4-(octyloxy)phenyl)-4-(pyridin-4-yl)thiazol-2-amine] was tested, and the EC50 was under 1 µM.
Compound `CCCCCN(C)c1ccc(Nc2nc(-c3cccnc3)cs2)cc1C(F)(F)F` [compound 379, N^1-methyl-N^1-pentyl-N^4-(4-(pyridin-3-yl)thiazol-2-yl)-2-(trifluoromethyl)benzene-1,4-diamine] has an EC50 of under 1 µM.

Same assay, conditions: Hepatitis C virus, replicon based assay of HCV replication inhibition; Table IV; read-out: Activity
`CCCCCOc1ccc2nc(NC(=O)c3cccnc3)sc2c1` [compound 832, N-(6-(pentyloxy)benzo[d]thiazol-2-yl)nicotinamide] was tested, and the EC50 was over 10 µM.
In the case of `Cc1ccc(-c2ccccc2)cc1Nc1nc(-c2cccnc2)cs1` [compound 905], the EC50 is reported as over 10 µM.
`Cc1nc2cc(Nc3nc(-c4cccnc4)cs3)ccc2s1` [compound 745, 2-methy1-N-(4-(pyridin-3-yl)thiazol-2-yl)benzo[d]thiazol-5-amine] was tested, and the EC50 was over 10 µM.
Compound `CCCCCCCCOc1ccc(Nc2nc(-c3ccc(F)cc3)c(N)s2)cc1C(F)(F)F` [compound 857, N^2-(3-(trifluoromethyl)-4-(octyloxy)phenyl)-4-(4-fluorophenyl)thiazole-2,5-diamine] has an EC50 of under 1 µM.
`CCCCCCCCOc1ccc(Nc2nc(-c3cccnc3)c(C)s2)cc1C(F)(F)F` [compound 836, N-(3-(trifluoromethyl)-4-(octyloxy)phenyl)-5-methyl-4-(pyridin-3-yl)thiazol-2-amine] gave an EC50 of under 1 µM.
Work on `Cc1noc(NS(=O)(=O)c2ccc(Nc3nc(-c4cccnc4)cs3)cc2)c1C` [compound 910] yielded an EC50 of over 10 µM.
`CCCCCCCCc1ccc(Nc2nc(-c3cccnc3)cs2)cc1C(F)(F)F` [compound 825, N-(3-(trifluoromethyl)-4-octylphenyl)-4-(pyridin-3-yl)thiazol-2-amine] gave an EC50 of under 1 µM.
`COC(=O)c1sc(-c2ccccc2)cc1Nc1nc(-c2cccnc2)cs1` [compound 744, methyl 3-(4-(pyridin-3-yl)thiazol-2-ylamino)-5-phenylthiophene-2-carboxylate] showed an EC50 of over 10 µM.
In the case of `COc1cc(Nc2nc(-c3cccnc3)cs2)cc(OC)c1` [compound 901, N-(3,5-dimethoxyphenyl)-4-(pyridin-3-yl)thiazol-2-amine], the EC50 is reported as 1 to 10 µM.
`COc1ncc(-c2csc(Nc3ccc(OCC4CCCCC4)c(F)c3)n2)cn1` [compound 720, N-(4-(cyclohexylmethoxy)-3-fluorophenyl)-4-(2-methoxypyrimidin-5-yl)thiazol-2-amine] was tested, and the EC50 was under 1 µM.
In the case of `c1cncc(-c2csc(Nc3nc(CN4CCCCC4)cs3)n2)c1` [compound 834, 4-((piperidin-1-yl)methyl)-N-(4-(pyridin-3-yl)thiazol-2-yl)thiazol-2-amine], the EC50 is reported as over 10 µM.
`CCn1c(C)nc2cc(Nc3nc(-c4cccnc4)cs3)ccc21` [compound 750, 1-ethyl-2-methyl-N-(4-(pyridin-3-yl)thiazol-2-yl)-1H-benzo[d]imidazol-5-amine] gave an EC50 of over 10 µM.
Work on `O=c1[nH]c2ccc(-c3csc(Nc4ccc(OCC5CCCCC5)c(F)c4)n3)cc2c(=O)o1` [compound 723, 6-(2-(4-(cyclohexylmethoxy)-3-fluorophenylamino)thiazol-4-yl)-1H-benzo[d][1,3]oxazine-2,4-dione] yielded an EC50 of 1 to 10 µM.
`CCCCCCCCOc1ccc(Nc2nc(-c3csc(N)n3)cs2)cc1C(F)(F)F` [compound 916, 4-(2-(3-(trifluoromethyl)-4-(octyloxy)phenylamino)thiazol-4-yl)thiazol-2-amine] was tested, and the EC50 was under 1 µM.
Work on `Cn1nc(-c2ccccc2)cc1Nc1nc(-c2cccnc2)cs1` [compound 748, 1-methyl-3-phenyl-N-(4-(pyridin-3-yl)thiazol-2-yl)-1H-pyrazol-5-amine] yielded an EC50 of over 10 µM.
`Cc1c(Nc2nc(-c3cccnc3)cs2)cccc1C(F)(F)F` [compound 899, N-(3-(trifluoromethyl)-2-methylphenyl)-4-(pyridin-3-yl)thiazol-2-amine] gave an EC50 of 1 to 10 µM.
For `FC(F)(F)c1cc(Nc2nc(-c3cccnc3)cs2)cc(C(F)(F)F)c1` [compound 874, N-(3,5-bis(trifluoromethyl)phenyl)-4-(pyridin-3-yl)thiazol-2-amine], the EC50 was 1 to 10 µM.
